Data reported in US7692011B2, “8-hydroxy and 8-mercapto quinazolinones” (Prana Biotechnology Limited, priority 2002, dated 2010).

Assay: Assay 13 Blood brain barrier penetration (rat brain perfusion)
Format: in vivo
Settings: 50 μM infusion, 1.5 minutes
Experimental: Assay 13. Blood Brain Barrier Penetration
The test compounds were dissolved in DMSO and phosphate buffered saline (PBS) was added to obtain solutions at a concentration of 50 μM in PBS containing 1.25-2.5% DMSO. A trace amount of ^14C-sucrose was added to each stock infusion solution (approx 0.01 μCi/mL) to act as Blood-Brain Barrier (BBB)-impermeable marker in order to assess the integrity of the BBB during each perfusion and to estimate the volume of the residual vascular space (RVS) in samples of brain tissue (ie: the volume of fluid remaining inside the lumen of blood vessels at the end of each perfusion). […]
After 1.5 minutes, the infusion pump automatically stopped, the cannula was withdrawn from the carotid artery and a sample of the infusion solution (1-1.5 mL) was then collected from the tip of the infusion cannula. […] The brain tissue samples from each animal were frozen at −30° C., homogenized and weighed aliquots analysed by LC-MS to give total brain concentration. […]
Small aliquots from each brain tissue sample and the corresponding infusion solution were analysed by liquid scintillation counting to determine the level of ^14C-sucrose. The residual vascular space (RVS) in each brain tissue sample was calculated by dividing the measured concentration of sucrose in brain tissue (dpm/mg) by its concentration in the corresponding infusion solution (dpm/μL). […]

- Assay 13 Rat brain perfusion (brain uptake ratio): >50%
Compound: O=c1c2c(Cl)cc(Cl)c(O)c2ncn1C1CC1 [PBT-1061, 5,7-Dichloro-3-cyclopropyl-8-hydroxy-3H-quinazolin-4-one]
